Results on 9 compounds are retold here after PubChem BioAssay (NCI).

SMILES strings stand for the structures.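 1) Cells in 96-well plates. 2) Compound, 48 h, 5 concentrations. 3) Linear interpolation between surrounding doses. 4) Unreached endpoint = highest concentration. TGI denotes the concentration required for complete inhibition of growth.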 Where only a bound is given, the exact number is not on record here.

Some test systems named below: HL-60(TB) leukemia; RPMI-8226 leukemia; NCI-H460 lung; CAKI-1 renal; SK-MEL-2 melanoma; HCT-15 colon; 786-0 renal; SF-539 CNS; LOX IMVI melanoma; OVCAR-5 ovarian; MCF7 breast; UACC-257 melanoma; EKVX NSCLC; HCC-2998 colon; MDA-MB-231 breast; UACC-62 melanoma; DU-145 prostate; NCI-H522 lung.
What all share (experiment): growth of human tumour cells (NCI), 48 h

On to `CCCCCCCCOP(=O)(O)OP(=O)(O)OCC1OC(n2ccc(N)nc2=O)C(O)C1O` (stereo not drawn), for which the TGI with HL-60(TB) leukemia, in the test on RPMI-8226 leukemia, in the test with NCI-H460 lung, in the test with CAKI-1 renal, in the test with SK-MEL-2 melanoma and in the test on HCT-15 colon was greater than 100 µM in each case. For the same compound, the TGI with 786-0 renal, with SF-539 CNS, in the test on LOX IMVI melanoma, in the test with OVCAR-5 ovarian, in the test on MCF7 breast and in the test on UACC-257 melanoma was greater than 100 µM throughout. For the same compound, the TGI with EKVX NSCLC, in the test on HCC-2998 colon, with MDA-MB-231 breast and with UACC-62 melanoma was greater than 100 µM throughout.
On to `Nc1ccc(-c2nnc(-c3c(Cl)c(Cl)c(Cl)c(Cl)c3-c3nc4ccc(C(=O)c5ccccc5)cc4[nH]3)o2)cc1`, for which the TGI is 31.8 µM in the test with RPMI-8226 leukemia; greater than 100 µM with CAKI-1 renal; 90.5 µM with DU-145 prostate; 88.3 µM in the test on SK-MEL-2 melanoma; 61 µM in the test with HCT-15 colon; 36.1 µM with 786-0 renal. Further, the TGI in the test on SF-539 CNS is 29.3 µM; in the test with LOX IMVI melanoma it was greater than 100 µM; in the test on OVCAR-5 ovarian, 89 µM; with MCF7 breast it was 76.2 µM; in the test on UACC-257 melanoma it was greater than 100 µM; in the test with EKVX NSCLC, 87.7 µM. Also, the TGI with NCI-H522 lung turned out to be 47.9 µM; with MDA-MB-231 breast, 55.4 µM.
Turning to `CN1CCC2(CC1)C(=O)N(NC(N)=O)C(=O)C2c1ccccc1` (stereo not drawn), the TGI in the test on HL-60(TB) leukemia, in the test on RPMI-8226 leukemia, with NCI-H460 lung, in the test with CAKI-1 renal, in the test on DU-145 prostate and in the test on SK-MEL-2 melanoma was greater than 100 µM each time. Also, the TGI in the test with HCT-15 colon, in the test on 786-0 renal, in the test on SF-539 CNS, in the test with LOX IMVI melanoma, in the test on OVCAR-5 ovarian and in the test with UACC-257 melanoma was greater than 100 µM each time. For the same compound, the TGI with EKVX NSCLC, in the test with HCC-2998 colon, in the test on MDA-MB-231 breast and in the test on UACC-62 melanoma was greater than 100 µM in each case.
Consider `CC1(C)OC[C@@H]([C@H](C=O)OCc2ccccc2)O1`, for which the TGI in the test with RPMI-8226 leukemia, in the test with DU-145 prostate, in the test with SK-MEL-2 melanoma, in the test on HCT-15 colon, in the test with 786-0 renal and in the test with LOX IMVI melanoma was greater than 100 µM each time. The TGI with OVCAR-5 ovarian, with MCF7 breast, in the test on UACC-257 melanoma, in the test with EKVX NSCLC, with MDA-MB-231 breast and in the test with UACC-62 melanoma was greater than 100 µM throughout.
Consider `O=C1CCN(CCC(F)(F)C(F)(F)C(F)(F)C(F)(F)F)C(=S)N1`, for which the TGI with HL-60(TB) leukemia, in the test on RPMI-8226 leukemia, with NCI-H460 lung, in the test on SK-MEL-2 melanoma, in the test with HCT-15 colon and in the test on 786-0 renal was greater than 100 µM in each case. The TGI with SF-539 CNS, in the test on LOX IMVI melanoma, in the test with OVCAR-5 ovarian, with EKVX NSCLC, with NCI-H522 lung and in the test on UACC-62 melanoma was greater than 100 µM throughout.
Regarding `CCOC(=O)C(CC(C)C)NC(=O)C(N)Cc1ccc(N(CCCl)CCCl)cc1` (stereo not drawn), the TGI in the test on HL-60(TB) leukemia is 2.51 µM; in the test with RPMI-8226 leukemia it was greater than 64.7 µM; in the test on NCI-H460 lung, 0.426 µM; in the test on CAKI-1 renal, 15.3 µM; with DU-145 prostate, 47.1 µM; with SK-MEL-2 melanoma, 11.8 µM. For the same compound, the TGI with HCT-15 colon worked out at 11.5 µM; in the test on 786-0 renal, 6.81 µM; in the test on SF-539 CNS, 9.59 µM; with LOX IMVI melanoma it was 0.278 µM; with OVCAR-5 ovarian it was 33.7 µM; with UACC-257 melanoma, 26.9 µM. The TGI with EKVX NSCLC is 37.5 µM; with NCI-H522 lung, 8.53 µM; with HCC-2998 colon it was 20 µM; with MDA-MB-231 breast, 32.3 µM; in the test on UACC-62 melanoma, 9.56 µM.
Take `Cc1ccc(C)n1-n1c(Cc2ccc(Cl)cc2)n[nH]c1=O`: the TGI with RPMI-8226 leukemia, in the test with NCI-H460 lung, with CAKI-1 renal, with DU-145 prostate, with SK-MEL-2 melanoma and in the test on HCT-15 colon was greater than 100 µM throughout. Moreover, the TGI in the test with 786-0 renal, with LOX IMVI melanoma, in the test with OVCAR-5 ovarian, with MCF7 breast, in the test with UACC-257 melanoma and in the test on EKVX NSCLC was greater than 100 µM throughout. Besides, the TGI in the test with NCI-H522 lung, in the test with MDA-MB-231 breast and with UACC-62 melanoma was greater than 100 µM in each case.
`CN(NC(=O)c1ccc(Cl)cc1)C1=NCCCCN1`: the TGI with HL-60(TB) leukemia, in the test on RPMI-8226 leukemia, with NCI-H460 lung, in the test with CAKI-1 renal, with SK-MEL-2 melanoma and in the test on HCT-15 colon was greater than 100 µM in each case. Also, the TGI in the test with 786-0 renal, in the test with SF-539 CNS, in the test with LOX IMVI melanoma, in the test on OVCAR-5 ovarian, in the test with MCF7 breast and in the test on UACC-257 melanoma was greater than 100 µM in each case. Also, the TGI with EKVX NSCLC, in the test with NCI-H522 lung, in the test on HCC-2998 colon, in the test with MDA-MB-231 breast and in the test with UACC-62 melanoma was greater than 100 µM throughout.
`Cc1cc2c(=O)c3ccc(Cl)cc3[nH]c2c(C(=O)O)c1C`: the TGI in the test on RPMI-8226 leukemia, in the test on NCI-H460 lung, in the test on CAKI-1 renal, in the test with SK-MEL-2 melanoma, in the test on HCT-15 colon and in the test on 786-0 renal was greater than 100 µM in each case. In addition, the TGI in the test on SF-539 CNS, in the test with LOX IMVI melanoma, with OVCAR-5 ovarian, in the test on UACC-257 melanoma, in the test with EKVX NSCLC and in the test on NCI-H522 lung was greater than 100 µM in each case. Moreover, the TGI with HCC-2998 colon and in the test with UACC-62 melanoma was greater than 100 µM in each case.
